{
  "source": "patent US6221860A",
  "about": "“Beta-lactam inhibitors of CoA-IT” (SmithKline Beecham Corporation, priority 1999, dated 2001)",
  "key": {"CoA-IT": {"test_system": "CoA-IT", "test": "Microsomal CoA-IT activity assay (U937 cell microsomes)", "assay_type": "biochemical", "conditions": "increased uM or longer pretreatment time", "excerpt": "The following is a method to measure CoA-IT activity and the effects of compounds on CoA-IT activity. The assay is based upon mixing cellular material containing CoA-IT activity with a stable lyso phospholipid such as 1-alkyl-2-acyl-GPC and measuring the production of phospholipid product such as 1-alkyl-2-acyl-GPC occurring in the absence of added CoA or CoA-fatty acids.\nAny inflammatory cell that contains high levels of COA-IT activity can be used, such as neutrophils, macrophages or cell lines such as U937 cells. U937 cells were obtained from American Type Culture Collection and grown in RPMI- 1640 media (Gibco, Grand Island, N.Y.) supplemented with 10% fetal bovine serum (Hyclone, Logan, Utah) at 37° C., 5% CO2. Cells were grown without differentiation (basal state) by any agent, such as dimethyl sulfoxide.\nMicrosomes were prepared using standard techniques. […]\nCoA-lT activity was measured in 1.5 ml centrifuge tubes in a total volume of 100 ul. […] An aliquot of the chloroform-extracted materials were separated, usually by TLC in chloroform/methanol/acetic acid/water (50:25:8:4, v/v), visualized by radioscanning (Bioscan) and the product, [^3 H]1-alkyl-2-acyl-GPC, was scraped and quantified by liquid scintillation spectroscopy. […]\nProtein concentration were assessed using the protein assay reagents from Bio-Rad (Richmond, Calif.)."}, "[1]": {"test_system": "phorbol ester-induced inflammation in mouse ear", "test": "TPA-induced mouse ear inflammation (ear edema and MPO)", "assay_type": "in vivo", "conditions": "topical, Balb/c mice", "procedure": "Male Balb/c inbred mice were obtained from Charle River Breeding Laboratories (Kingston, N.Y.). Within a single experiment mice (22-25 g) were age-matched. These in vivo experiments typically involved use of 5-6 animals/group.\nTPA (12-O-tetradecanoylphorbol 13-acetate) (Sigma Chemical Company) in acetone ([…]) was applied to the inner and outer surfaces of the left ear of BALB/c male mice. The thickness of both ears was then measured with a dial micrometer (Mitutoyo, Japan) at both 2 and 4 hours after treatment, and the data expressed as the change in thickness (10^-3 cm) between treated and untreated ears. […] After measuring the edema, the inflammed left ears were removed and stored at -70° C. until they were assayed for MPO (myeloperoxidase) activity where appropriate.\nOn the day of the assay, partially thawed ear tissues were minced and then homogenized (10% w/v) with a Tissumnizer homogenizer (Tekmar Co.) in 50 mM phosphate buffer (pH 6) containing 0.5% HTAB. […] Supernatant MPO activity was quantified kinetically (change in absorbance measured over 3 min, sampled at 15-sec intervals) using a Beckman DU-7 spectrophotometer and a Kinetics Analysis package (Beckman Instruments, Inc.). […]\nBalb/c mice were given PMA followed by the test compound. The edematous response was measured using a thickness gauge 4 hrs post PMA application. […]"}},
  "data": [
    {"smiles": "COC(=O)CCCO[C@@H]1NC(=O)[C@H]1NC(c1ccccc1)(c1ccccc1)c1ccccc1", "note": "[Example 17, (3S,4S)-4-[3-(Methoxycarbonyl)propoxy]-3-(triphenylmethylamino)azetidin-2-one]", "values": [
      {"measurement": "activity in CoA-IT assay at increased concentration or longer pretreatment", "setting": "CoA-IT", "result": "active at either increased uM or longer pretreatment time"}
    ]},
    {"smiles": "C[C@@H]1C[C@H]2[C@@H]3CCC4=CC(=O)C=C[C@]4(C)[C@@]3(F)[C@@H](O)C[C@]2(C)[C@@]1(O)C(=O)CO", "note": "[dexamethasone, reference compound]", "values": [
      {"measurement": "Edema @ 4 hr ED50", "setting": "[1]; 4 hrs post PMA application", "result": 0.06, "unit": "mg/ear"},
      {"measurement": "MPO response ED50", "setting": "[1]; inflamed ears harvested after the 4 hr edema measurement", "result": 0.03, "unit": "mg/ear"}
    ]}
  ]
}
